Patent publication US20230128114A1, “METHODS AND COMPOSITIONS FOR TREATING OR PREVENTING AN INFLAMMATORY CONDITION” (priority 2020, published 2023)

Assays:
[1] = test system: LPS-induced pulmonary inflammation; assay: LPS-induced pulmonary inflammation: BALF white blood cell count; assay type: in vivo, C57BL/B6 mice; settings: CBD 10 mg/kg, HCQ 2.5 mg/kg, alone or combined
Description: (§1) Male C57BL/B6 mice weighing 10-20 g were used. Vehicle and active agents (i.e., CBD and hydroxychloroquine) alone or in combination were administered intraperitoneally (IP) at 1 hour before LPS (˜80 mg/kg) was administered intratracheally. 24 hours after LPS injection, mice were anaesthetized with pentoparbital and 0.5 mL of PBS was administered twice through a tracheal cannula after which approximately 0.6 mL of broncheoalveolar lavage fluid (BALF) was obtained. The BALF was assayed for IL-1β, TNF-α, MCP-1(MCAF) and CXCL-1 by Luminex. ANOVA followed by Dunnett's test was applied for comparison between vehicle and treatment groups. p<0.05 was considered significant.
BALF collected from mice were also analysed for white blood cell (WBC) count using an automatic haematology analyser. Cell counts were normalised using sham treated mice, and analysed relative to the highest values across the groups (Table 27).

[2] = test system: LPS-induced pulmonary inflammation; assay: LPS-induced pulmonary inflammation: lung histopathology lesion score; assay type: in vivo, C57BL/B6 mice
Description: as §1
In a separate test group of animals with pulmonary inflammation induced as detailed above, lungs were harvested at termination (five lobes per lung) and fixed in 10% neutral buffered formalin for histopathology. Samples were sectioned at 4-6 μm and stained with hematoxylin and eosin (H&E) to examine inflammatory lesions as described by Shackleford et al. (2002, Toxicologic Pathology, 30(1): 93-96). Briefly, a score of 0 corresponds to not present, and a score of 5 indicates a severe/high number of lesions. Scores were averaged across lobes for each animal and then across animals for each treatment group.

TNBS-induced colitis = assay: TNBS-induced colitis; assay type: in vivo, BALB/c mice; settings: for Relative reduction in Colon to body weight ratio / Relative reduction in Total Colitis Index / Macroscopic damage score, relative reduction / Stool consistency score, relative reduction / MPO, relative reduction: HCQ 2.5 mg/kg, alone or combined; for Relative reduction in Total Colitis Index: histology of distal colon; for Macroscopic damage score, relative reduction / Stool consistency score, relative reduction / MPO, relative reduction: observed; for MPO, relative reduction: colon tissue
Source text: Male BALB/c were used as an in vivo model of colitis, induced by intracolonic administration of 2,4,6-trinitrobenzene sulfonic acid (TNBS) in 50% ethanol, as previously described by Antoniou et al. (2016, Annals of Medicine and Surgery, 11: 9-15). Briefly, the ethanol disrupts the intestinal barrier, permitting TNBS to interact with colon proteins. Interaction of TNBS with high-molecular weight proteins renders them immunogenic, leading to Th1 mediated inflammation, which is causative of symptoms include inconsistent stool formation and blood in the faeces.
Vehicle and active agents (i.e., CBD and hydroxychloroquine) alone or in combination were administered intraperitoneally (IP) once a day starting from Day 1 (i.e., 24 hours before TNBS) to Day 4, for a total of 4 consecutive days (Days 1-4). On the Day of TNBS challenge (i.e., Day 2), test articles and vehicle were given 2 hrs before TNBS.
Colon tissues were harvested in all animals at termination. Colon samples were taken at 0.5, 2, and 3.5 cm from the anus, fixed in formalin, and then embedded in paraffin blocks. Four-micrometer tissue sections were cut and stained with H&E for histological analysis in accordance with the method of Dieleman et al. (1998, Clinical Experimental Immunology, 114: 385-391). Histological criteria included: abnormalities of mucosal architecture, extent of inflammation, erosion or ulceration, epithelial regeneration, and the percentage involvement by the disease process. The scoring was based on the findings of the observers by examining three sections from each colon per animal. Total score for colitis (Total Colitis Index) were added, resulting in a combined histological score range from 0 to 60.
Other endpoint measures of stool consistency score (i.e., 0—normal stools, 1, soft but still formed stools, 2—very soft stools, 3—diarrhoea), faecal occult blood score (i.e., 0-negative hemoccult, 1—positive hemoccult, 2—blood traces in stool visible, 3—rectal bleeding), colon weight, colon macroscopic damage score (a composite of adhesions, strictures, ulcers/inflammations and wall thickness) and myeloperoxidase levels in the colon tissue were also assessed. The data from each of these endpoints was baseline subtracted using the equivalent measures from sham treated mice (i.e., no TNBS) and reduction in any measure calculated as a relative reduction. Synergy was calculated using the statistical methods described elsewhere herein.

[3] = Solubility of formulations for in vivo analysis (visual observation); assay type: physicochemical
Source text: Cannabidiol (CBD) and hydroxychloroquine (HCQ), were purchased by Pharmacology Discovery Services Taiwan, Ltd. The formulations are summarised in Table 3.

[4] = CBD 10 mg/kg, HCQ 25 mg/kg, alone or combined, pulmonary lesion score

SMILES | Relative reduction in white blood cell counts: Neutrophil [1] | Relative reduction in white blood cell counts: WBC [1] | Relative reduction in lesion score ([2]; CBD 1 mg/kg) | Relative reduction in lesion score [2, 4] | Colon tissue histology (H&E, 100×), FIG. 3 (TNBS-induced colitis; CBD 1 mg/kg) | Relative reduction in Colon to body weight ratio (TNBS-induced colitis; CBD 1 mg/kg) | Relative reduction in Total Colitis Index (TNBS-induced colitis; CBD 1 mg/kg) | Macroscopic damage score, relative reduction (TNBS-induced colitis; CBD 1 mg/kg) | Stool consistency score, relative reduction (TNBS-induced colitis; CBD 1 mg/kg) | MPO, relative reduction (TNBS-induced colitis; CBD 1 mg/kg) | Relative reduction in lesion score ([2]; HCQ 2.5 mg/kg) | Colon tissue histology (H&E, 100×), FIG. 3 (TNBS-induced colitis; hydroxychloroquine 2.5 mg/kg) | Solubil. [3]
C=C(C)[C@@H]1CCC(C)=C[C@H]1c1c(O)cc(CCCCC)cc1O [CBD, cannabidiol] | 0.25 | 0.27 | 0.18 | 0.29 | inflammatory cell infiltration in submucosal edema | 0.373 | 0.25 | 0.10 | 0.17 | 0.34 | – | – | –
CCN(CCO)CCCC(C)Nc1ccnc2cc(Cl)ccc12 (stereo not drawn) [HCQ] | 0.10 | 0.11 | – | 0.37 | – | 0.287 | 0.27 | 0.05 | 0.00 | 0.00 | 0.21 | mild abnormality, cyctic dilation and aberrant crypts | S
